From ChEMBL document CHEMBL1201862, “PubChem BioAssay data set” (2004)
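Results reflect a 48-hour exposure of cells in 96-well plates to compound at five concentrations. Here, GI50 denotes the concentration required for 50% inhibition of growth.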 Active and inactive are the calls of the source. Cut-off read from the data, not from the text of the source: active = GI50 up to about 1.1 µM and inactive = higher.

Experiments:
Assay in all cases: NCI-60 cell line screen, 48 h
[1] = system: HCT-116
[2] = system: SF-268
[3] = system: SNB-19
[4] = system: NCI-H522
[5] = system: RPMI-8226
[6] = system: OVCAR-3
[7] = system: HL-60
[8] = system: A498
[9] = system: CAKI-1
[10] = system: OVCAR-5
[11] = system: HOP-62
[12] = system: SW-620
[13] = system: OVCAR-4
[14] = system: NCI-H226
[15] = system: MOLT-4
[16] = system: U-251
[17] = system: UACC-62
[18] = system: SK-MEL-28
[19] = system: K562
[20] = system: M14

Compound	GI50 [1]	GI50 [2]	GI50 [3]	GI50 [4]	GI50 [5]	GI50 [6]	GI50 [7]	GI50 [8]	GI50 [9]	GI50 [10]	GI50 [11]	GI50 [12]	GI50 [13]	GI50 [14]	GI50 [15]	GI50 [16]	GI50 [17]	GI50 [18]	GI50 [19]	GI50 [20]
O=NN1C(c2ccccc2)CNC(=O)CC1c1ccccc1 (stereo not drawn)	38.5 µM (inactive)	78.5 µM (inactive)	48.5 µM (inactive)	20.3 µM (inactive)	34 µM (inactive)	22.8 µM (inactive)	21.9 µM (inactive)	35.6 µM (inactive)	59.6 µM (inactive)	> 100 µM (inactive)	37.6 µM (inactive)	38.1 µM (inactive)	52.8 µM (inactive)	68.5 µM (inactive)	52.7 µM (inactive)	55.3 µM (inactive)	44.4 µM (inactive)	57.3 µM (inactive)	22.6 µM (inactive)	
COc1ccc(C[C@H](N)C(=O)N2C[C@H](CO)C[C@H](n3cnc4c(N(C)C)ncnc43)C2)cc1	> 100 µM (inactive)	> 100 µM (inactive)	> 100 µM (inactive)	> 100 µM (inactive)	> 100 µM (inactive)	> 100 µM (inactive)	73.5 µM (inactive)		> 100 µM (inactive)	> 100 µM (inactive)	> 100 µM (inactive)	> 100 µM (inactive)	> 100 µM (inactive)	> 100 µM (inactive)	> 100 µM (inactive)	> 100 µM (inactive)	> 100 µM (inactive)	> 100 µM (inactive)	> 100 µM (inactive)	> 100 µM (inactive)
O=c1c(C(c2ccccn2)c2c(O)oc3cc(O)ccc3c2=O)c(O)oc2cc(O)ccc12	> 100 µM (inactive)	> 100 µM (inactive)	> 100 µM (inactive)	> 100 µM (inactive)	> 100 µM (inactive)	> 100 µM (inactive)		> 100 µM (inactive)	> 100 µM (inactive)	> 100 µM (inactive)	> 100 µM (inactive)	> 100 µM (inactive)		> 100 µM (inactive)	> 100 µM (inactive)	> 100 µM (inactive)	> 100 µM (inactive)	> 100 µM (inactive)	> 100 µM (inactive)	> 100 µM (inactive)
CC(C)(C)[Si](C)(C)OC[C@H](/C=C\CCCC(=O)O)NC1(c2ccccc2)c2ccccc2-c2ccccc21	7.29 µM (inactive)	13.9 µM (inactive)	32.9 µM (inactive)	18.7 µM (inactive)	4.17 µM (inactive)	12.5 µM (inactive)	8.53 µM (inactive)	17.5 µM (inactive)	11.2 µM (inactive)	23.2 µM (inactive)	15.2 µM (inactive)	22.5 µM (inactive)	14.8 µM (inactive)	11.6 µM (inactive)	5.52 µM (inactive)	14.4 µM (inactive)	12.6 µM (inactive)	16.7 µM (inactive)	5.18 µM (inactive)	16.8 µM (inactive)
O=C1CCCCN1	> 1120 µM (inactive)	> 1120 µM (inactive)	> 1120 µM (inactive)	> 1120 µM (inactive)	> 1120 µM (inactive)	> 1120 µM (inactive)	706 µM (inactive)	> 52 µM (inactive)	> 1120 µM (inactive)	> 1120 µM (inactive)	> 1120 µM (inactive)	> 1120 µM (inactive)	> 1120 µM (inactive)	635 µM (inactive)	706 µM (inactive)	> 252 µM (inactive)	> 411 µM (inactive)	> 1120 µM (inactive)	> 1120 µM (inactive)	
COc1ccc(-c2c3c(nc4nc(SC)nc(SC)c24)CCCC3)cc1OC	44.4 µM (inactive)	82.2 µM (inactive)	> 100 µM (inactive)	31.6 µM (inactive)	45.8 µM (inactive)	65.5 µM (inactive)	25.1 µM (inactive)	> 100 µM (inactive)	67.9 µM (inactive)	> 100 µM (inactive)	46.8 µM (inactive)	67.5 µM (inactive)		56.6 µM (inactive)	33.4 µM (inactive)	70.3 µM (inactive)	67.6 µM (inactive)	59.7 µM (inactive)	28.2 µM (inactive)	81.7 µM (inactive)
OC[C@@H](O)[C@H]1NC[C@@H](O)[C@H]1O	> 100 µM (inactive)	> 100 µM (inactive)	> 100 µM (inactive)	> 100 µM (inactive)	> 100 µM (inactive)	> 100 µM (inactive)	> 100 µM (inactive)	> 100 µM (inactive)	> 100 µM (inactive)	> 100 µM (inactive)	> 100 µM (inactive)	> 100 µM (inactive)	> 100 µM (inactive)		> 100 µM (inactive)	> 100 µM (inactive)	> 100 µM (inactive)	> 100 µM (inactive)		> 100 µM (inactive)
CC(=O)c1cccc(NC(=O)C(=O)C(C(=O)NN)c2ccccc2)c1 (stereo not drawn)	> 100 µM (inactive)	> 100 µM (inactive)	> 100 µM (inactive)	> 100 µM (inactive)	> 100 µM (inactive)	> 100 µM (inactive)		> 100 µM (inactive)	> 100 µM (inactive)	> 100 µM (inactive)	> 100 µM (inactive)	> 100 µM (inactive)	> 100 µM (inactive)	> 100 µM (inactive)	> 100 µM (inactive)	> 100 µM (inactive)	> 100 µM (inactive)	> 100 µM (inactive)	> 100 µM (inactive)	> 100 µM (inactive)
O=c1cc(-c2nc3ccccc3[nH]2)[nH]c2nc(-c3nc4ccccc4[nH]3)cc(-c3ccc(Cl)cc3)c12	17 µM (inactive)	15.8 µM (inactive)	46.3 µM (inactive)	6.27 µM (inactive)	11.5 µM (inactive)	19.3 µM (inactive)	24.9 µM (inactive)		21.9 µM (inactive)	29 µM (inactive)	24.4 µM (inactive)	21.5 µM (inactive)	26.1 µM (inactive)	16.9 µM (inactive)	19.4 µM (inactive)	16.1 µM (inactive)	14 µM (inactive)		16.1 µM (inactive)	23.8 µM (inactive)
CC(=O)N1N=C(c2ccc3ccccc3c2O)CC1c1cccs1 (stereo not drawn)	9.89 µM (inactive)	12.3 µM (inactive)		14.9 µM (inactive)	6.55 µM (inactive)	7.96 µM (inactive)		12.7 µM (inactive)	20.1 µM (inactive)	32.4 µM (inactive)	16.3 µM (inactive)	16 µM (inactive)	27.8 µM (inactive)	40.1 µM (inactive)	4.26 µM (inactive)	8.09 µM (inactive)	9.31 µM (inactive)	37.2 µM (inactive)	4.18 µM (inactive)	14.4 µM (inactive)
CC(=O)O[C@H]1CC[C@]2(C=O)[C@H]3CC[C@]4(C)[C@@H](C5=CC(=O)OC5)CC[C@]4(O)[C@@H]3CC[C@]2(O)C1 [STROPHANTHIDIN ACETATE]	0.11 µM (active)	0.171 µM (active)	0.608 µM (active)	0.0336 µM (active)	0.313 µM (active)	0.0982 µM (active)	0.344 µM (active)	0.264 µM (active)	0.0536 µM (active)	0.575 µM (active)	0.226 µM (active)	0.264 µM (active)	0.0998 µM (active)	0.681 µM (active)	0.0262 µM (active)	0.296 µM (active)	0.353 µM (active)	0.774 µM (active)	0.83 µM (active)	0.416 µM (active)
NC12CCC(CC1=O)C2 (stereo not drawn)	> 100 µM (inactive)	> 100 µM (inactive)			> 100 µM (inactive)	> 100 µM (inactive)	> 100 µM (inactive)			> 100 µM (inactive)	> 100 µM (inactive)	> 100 µM (inactive)	> 100 µM (inactive)	> 100 µM (inactive)	> 100 µM (inactive)	> 100 µM (inactive)	> 100 µM (inactive)	> 100 µM (inactive)	> 100 µM (inactive)	> 100 µM (inactive)
O=C1Cc2c(-c3ccccc3)cc(-c3ccccc3)nc2-c2ccccc2N1	2.24 µM (inactive)	5.7 µM (inactive)	2.78 µM (inactive)	7.18 µM (inactive)	39.7 µM (inactive)	5.56 µM (inactive)	75.9 µM (inactive)	20 µM (inactive)	3.64 µM (inactive)	3.54 µM (inactive)	2.64 µM (inactive)	5.47 µM (inactive)		5.5 µM (inactive)		3.09 µM (inactive)	6.89 µM (inactive)	5.12 µM (inactive)	8.02 µM (inactive)	3.44 µM (inactive)
O=C1C=CC(=O)C1(Br)Br	7.69 µM (inactive)	18.5 µM (inactive)	17.1 µM (inactive)	6.27 µM (inactive)	6.64 µM (inactive)	12.9 µM (inactive)	11.4 µM (inactive)	13.2 µM (inactive)	5.11 µM (inactive)	10.7 µM (inactive)	17.6 µM (inactive)	10.1 µM (inactive)	17.6 µM (inactive)	19 µM (inactive)	14.7 µM (inactive)	12.3 µM (inactive)	10.8 µM (inactive)	7.24 µM (inactive)	10.2 µM (inactive)	18.1 µM (inactive)
CCOC(=O)C(C(C)=O)C1CC=CC1 (stereo not drawn)	> 100 µM (inactive)		> 100 µM (inactive)		> 100 µM (inactive)	> 100 µM (inactive)	> 100 µM (inactive)		> 100 µM (inactive)	> 100 µM (inactive)	> 100 µM (inactive)	> 100 µM (inactive)	> 100 µM (inactive)	> 100 µM (inactive)	> 100 µM (inactive)	> 100 µM (inactive)	> 100 µM (inactive)	> 100 µM (inactive)	> 100 µM (inactive)	> 100 µM (inactive)
